Laboratory results reported in BindingDB's records for doi:10.1021/acsmedchemlett.0c00369 (Shenyang Pharmaceutical University, 2021).

Biological target: Histone deacetylase 2 (Homo sapiens, UniProt Q92769)
Test: Inhibition of recombinant full length C-terminal FLAG-tagged human HDAC2 expressed in baculovirus infected Sf9 cells using Boc-Lys(Ac)-AMC as substrate preincubated for 15 mins followed by substrate addition and measured after 60 mins by fluorescence based assay

Sequence of Histone deacetylase 2 (Q92769 whole entry): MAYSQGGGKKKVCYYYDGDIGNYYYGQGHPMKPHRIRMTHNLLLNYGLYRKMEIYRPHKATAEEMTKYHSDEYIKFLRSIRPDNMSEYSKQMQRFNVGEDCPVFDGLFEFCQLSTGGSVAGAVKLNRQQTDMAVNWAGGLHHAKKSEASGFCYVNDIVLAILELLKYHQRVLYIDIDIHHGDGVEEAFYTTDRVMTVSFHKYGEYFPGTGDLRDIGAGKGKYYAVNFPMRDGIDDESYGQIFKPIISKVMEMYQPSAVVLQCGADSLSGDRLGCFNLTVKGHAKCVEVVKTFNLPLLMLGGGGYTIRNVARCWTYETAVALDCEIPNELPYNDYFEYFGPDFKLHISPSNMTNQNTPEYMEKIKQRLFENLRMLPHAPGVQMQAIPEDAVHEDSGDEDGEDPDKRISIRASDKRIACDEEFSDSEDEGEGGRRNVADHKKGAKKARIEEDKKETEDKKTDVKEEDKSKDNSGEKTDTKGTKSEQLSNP

IC50: 33 nM
SMILES: O=NC(Cc1ccc(O)c(Br)c1)C(=O)NCCSSCCNC(=O)C(Cc1ccc(O)c(Br)c1)N=O (stereo unspecified) [3-(3-bromo-4-hydroxy-phenyl)-N-[2-(2-{3-(3-bromo-4-hydroxy-phenyl)-2-[hydroxyimino]-propionylamino}-ethyldisulfanyl)-ethyl]-2-[hydroxyimino]-propionamide]
